According to ChEMBL document CHEMBL1221250, “Modification at the acidic domain of RXR agonists has little effect on permissive RXR-heterodimer activation” (Bioorg Med Chem Lett, 2010):
Active and inactive are the calls of the source. The calls are words filed in the database; no cut-off is given here.

Experiments:
[1] = target: T1, Retinoic acid receptor RXR-alpha (Homo sapiens) (UniProt P19793); experiment: Transactivation of RXRalpha in human COS7 cells at 10 uM by luciferase reporter gene assay; format: cell-based; details: COS-7
T1 sequence (whole entry): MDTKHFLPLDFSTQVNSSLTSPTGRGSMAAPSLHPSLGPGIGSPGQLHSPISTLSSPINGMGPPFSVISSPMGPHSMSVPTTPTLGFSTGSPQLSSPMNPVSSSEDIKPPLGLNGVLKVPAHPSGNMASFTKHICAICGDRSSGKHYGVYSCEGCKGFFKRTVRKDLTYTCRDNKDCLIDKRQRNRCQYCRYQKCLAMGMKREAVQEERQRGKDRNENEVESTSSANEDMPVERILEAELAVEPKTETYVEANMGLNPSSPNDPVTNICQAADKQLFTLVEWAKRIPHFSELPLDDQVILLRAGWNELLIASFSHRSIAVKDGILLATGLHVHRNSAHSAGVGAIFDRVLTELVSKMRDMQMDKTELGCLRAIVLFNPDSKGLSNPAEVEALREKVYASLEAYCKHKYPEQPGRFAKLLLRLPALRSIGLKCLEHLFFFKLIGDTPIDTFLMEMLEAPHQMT

[2] = target: T2, Retinoic acid receptor alpha (Homo sapiens) (UniProt P10276); experiment: Transactivation of RARalpha in human COS7 cells at 10 uM by luciferase reporter gene assay; format: cell-based; details: COS-7
T2 sequence (whole entry): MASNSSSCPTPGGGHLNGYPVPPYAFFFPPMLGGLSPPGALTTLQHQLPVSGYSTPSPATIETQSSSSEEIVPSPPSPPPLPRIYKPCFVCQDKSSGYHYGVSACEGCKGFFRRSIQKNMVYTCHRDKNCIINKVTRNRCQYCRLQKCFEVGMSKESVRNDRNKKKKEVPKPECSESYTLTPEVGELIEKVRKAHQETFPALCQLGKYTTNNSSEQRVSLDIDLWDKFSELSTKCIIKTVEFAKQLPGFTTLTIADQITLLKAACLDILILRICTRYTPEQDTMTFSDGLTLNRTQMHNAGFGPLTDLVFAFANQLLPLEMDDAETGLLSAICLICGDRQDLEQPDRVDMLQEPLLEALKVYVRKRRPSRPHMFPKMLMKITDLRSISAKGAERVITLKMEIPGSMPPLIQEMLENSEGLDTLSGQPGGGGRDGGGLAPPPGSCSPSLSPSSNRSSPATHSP

[3] = target: T3, Peroxisome proliferator-activated receptor gamma (Homo sapiens) (UniProt P37231); experiment: Transactivation of PPARgamma
T3 sequence (whole entry): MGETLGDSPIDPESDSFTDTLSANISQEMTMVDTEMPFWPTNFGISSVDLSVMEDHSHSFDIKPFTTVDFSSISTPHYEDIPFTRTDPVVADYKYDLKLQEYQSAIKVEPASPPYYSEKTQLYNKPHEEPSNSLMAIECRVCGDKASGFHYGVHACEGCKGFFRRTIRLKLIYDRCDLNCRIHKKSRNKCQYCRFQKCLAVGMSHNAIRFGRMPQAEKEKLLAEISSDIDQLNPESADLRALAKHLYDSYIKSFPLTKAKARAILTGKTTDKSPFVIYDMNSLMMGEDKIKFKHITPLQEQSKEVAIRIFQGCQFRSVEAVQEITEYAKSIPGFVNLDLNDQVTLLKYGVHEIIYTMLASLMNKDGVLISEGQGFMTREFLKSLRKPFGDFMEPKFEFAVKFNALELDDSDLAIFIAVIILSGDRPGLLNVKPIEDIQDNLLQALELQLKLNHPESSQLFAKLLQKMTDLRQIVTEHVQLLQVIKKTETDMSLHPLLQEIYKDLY

[4] = target: Retinoic acid receptor RXR-alpha/oxysterols receptor LXR-alpha (Homo sapiens) (UniProt P19793+Q13133); experiment: Transactivation of LXRalpha/RXRalpha; format: protein-complex assay
[5] = target: RXR alpha/PPAR gamma (Homo sapiens) (UniProt P37231+P19793); experiment: Transactivation of PPARgamma/RXRalpha heterodimer; format: protein-complex assay
[6] = target: T4, Oxysterols receptor LXR-alpha (Homo sapiens) (UniProt Q13133); experiment: Transactivation of LXRalpha
T4 sequence (whole entry): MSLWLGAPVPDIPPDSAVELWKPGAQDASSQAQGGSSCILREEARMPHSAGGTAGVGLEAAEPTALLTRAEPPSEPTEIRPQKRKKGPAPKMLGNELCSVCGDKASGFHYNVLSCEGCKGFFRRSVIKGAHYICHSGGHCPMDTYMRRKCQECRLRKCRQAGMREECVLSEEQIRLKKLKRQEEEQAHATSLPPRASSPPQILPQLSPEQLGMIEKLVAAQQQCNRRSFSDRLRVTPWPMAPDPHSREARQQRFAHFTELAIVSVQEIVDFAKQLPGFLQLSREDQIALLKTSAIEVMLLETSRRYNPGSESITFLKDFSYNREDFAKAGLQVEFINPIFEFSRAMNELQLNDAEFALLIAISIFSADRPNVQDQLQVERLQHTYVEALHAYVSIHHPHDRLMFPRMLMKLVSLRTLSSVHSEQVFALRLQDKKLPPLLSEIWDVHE

[7] = target: T5, Retinoic acid receptor RXR-alpha (Homo sapiens, UniProt P19793); experiment: Agonist activity at RXRalpha by luciferase reporter gene assay; format: functional
T5 sequence (P19793 whole entry): T1 sequence (whole entry)

Compound | Activity [1] | Activity [2] | Activity [3] | Activity [4] [%] | Activity [5] [%] | Activity [6] | EC50 [7] [nM]
CCN(c1ccc2c(c1)C(C)(C)CCC2(C)C)c1ccc(P(=O)(O)O)cn1 | inactive | inactive |  |  |  |  | 
CCN(c1ccc2c(c1)C(C)(C)CCC2(C)C)c1ccc(C(=O)NO)cn1 |  | inactive | inactive | 50 | 20 | inactive | 
CCN(c1ccc2c(c1)C(C)(C)CCC2(C)C)c1ccc(-c2nnn[nH]2)cn1 |  | inactive | inactive | 60 | 40 | inactive | 205
CCN(c1ccc2c(c1)C(C)(C)CCC2(C)C)c1ccc(C(=O)O)cn1 |  | inactive | inactive | 60 | 60 | inactive | 5.28
